This is an account of results in US9145398B2, “Methods of treating CXCR4-expressing cancers” (University of Louisville Research Foundation, Inc., priority 2010, dated 2015).

The target in data set [1] is T1, hCXCR4-GFP (Homo sapiens, UniProt P61073). Nature of the data set: Intracellular calcium mobilization assay, hCXCR4-GFP expressing 300.19 cells, CXCL12. The format is cell-based. Further details: IC50 of intracellular calcium mobilization, CXCR4; other: CXCL12-mediated; other: 50 μM test compound; normalized Δ fluorescence (CXCR4, intracellular calcium mobilization); other: 50 μM test compound, 60 seconds pretreatm. The settings on record: for normalized Δ fluorescence (CXCR4, intracellular calcium mobilization): 50 μM test compound, 60 seconds pretreatment, optimized CXCL12 (AMD3100 concentration not given); for IC50: CXCL12-mediated, read-out: IC50 of intracellular calcium mobilization, CXCR4. Here is the method:
(§1) Intracellular Calcium Mobilization Assay Method: The intracellular calcium mobilization assay used 300.19 cells which stably expressed hCXCR4-GFP, as described previously in Pello et al. (2008). Cells were loaded with INDO-I and then pretreated with the 50 μM of the test compound for 60 seconds prior to stimulation of intracellular calcium mobilization with an optimized concentration of CXCL12. […] The value Δ florescence is the difference between (a) the fluorescence ratio from cells before exposure to CXCL12 at its optimized concentration and (b) the fluorescence ratio from cells following stimulation with the optimized concentration of CXCL12. Decreases in Δ florescence correspond to decreases in intracellular calcium mobilization, and therefore, decreased signaling. As CXCL12 concentration was optimized for each test compound, results are presented as normalized Δ florescence which is Δ fluorescence divided by the fluorescence ratio of optimized CXCL12-only stimulation. In some instances, the IC50 concentration (concentration at which intracellular calcium mobilization is reduced to 50% of the Δ fluorescence of the CXCL12 plus DMSO control) of the test compounds was determined. All assays were performed a minimum of four times; error bars represent the standard deviation of the mean.

For a further data set, the system named is TC-1 tumor cells. The format is in vivo. The settings on record: 5 mg/kg i.p. every day for 21 days; versus PBS or Vehicle controls. An excerpt:
Development of Animal Model for CXCR4 Dependent Cancer Metastasis in Lungs: To establish a CXCR4 dependent lung tumor metastasis model, we first screened several cancer cell lines that are known to metastasize to lungs in mice models to determine which cancer cell lines endogenously express CXCR4 receptor. The mice cell lines screened were Lewis lung carcinoma, B16F10 melanoma, and TC-1 cervical carcinoma. Mice cell lines were screened using flow cytometry-based surface receptor staining using a fluorochrome labeled antibody to mouse CXCR4 receptor. […] The TC-1 cell line was generated by transfection of murine lung squamous epithelial cells by Human pappillomavirus (HPV) oncogenes E6, E7, and activated Ras.
5 mg/kg body weight of AMD3100, I-28, I-36, or I-38 were also injected at the same dose intra-peritoneal (i.p.) every day for 21 days starting from the day before the tumor cell injection. Mice were sacrificed and lungs were perfused and collected on day 21 post tumor challenge. Lungs were stored in formalin for 16 hrs and then transferred into 70% ethanol until the lung lobes became lucid. All five lung lobes were separated. Tumors were counted using a magnifying glass or a microscope. Tumor sizes were measured using a digital caliper. The total number of tumors counted in all five lung lobes of an individual mouse is reported as the tumor incidence. Mean tumor sizes were added together to calculate cumulative tumor size, which is reported as the tumor burden for each mouse.

Data set [2] has as its target T1, hCXCR4-GFP. Nature of the data set: Chemotaxis assay, hCXCR4-GFP expressing 300.19 cells, CXCL12. Type of data set: cell-based. The settings on record: concentrations ranging from 50 nM to 100 nM; data not shown. Here is the method: (§2) Cells were suspended in chemotaxis buffer (RPMI 1640, 1% fetal bovine serum, 1 mM HEPES) at a concentration of 1×10^7 cells per ml. Cell chemotaxis was determined by examining the migration of the 300.19 cells in response to administration of 50 μM test compound plus an optimized concentration of CXCL12 using a chemotaxis assay that was previously described in Basu et al. (Basu et al., Critical role for polar residues in coupling leukotriene B4 binding to signal transduction in BLT1, J. Biol. Chem. (2007) Vol. 282, pp. 10005-17). 100 μL of 300.19 cells from the above cell suspension were placed in the upper chamber of a Transwell support (Corning Costar, Cambridge, Mass.) and were separated by a 5 micron filter from a bottom chamber containing 50 μM test compound plus the optimized concentration of CXCL12 in a final bottom chamber volume of 600 μl. After 3 h of incubation at 37° C. in 5% CO2, the upper chamber was removed and cells in the lower chamber were counted in a Bürker chamber. Cell counts for all samples were normalized to a CXCL12 plus DMSO control and results are reported using this normalized measure, referred to herein as the chemotaxis index. In some instances, the IC50 concentration (i.e., the concentration at which the chemotaxis index is reduced to 50% of the chemotaxis index of the CXCL12 plus DMSO control) of the test compounds was determined. All assays were performed a minimum of four times; error bars represent the standard deviation of the mean.

For another data set, the target named is BLT1 (Homo sapiens, UniProt Q15722). Nature of the data set: Intracellular calcium mobilization assay, cells expressing BLT1, LTB4. Type of data set: cell-based. Conditions: for IC50: LTB4-mediated; for normalized Δ fluorescence (BLT1, intracellular calcium mobilization): 50 μM test compound, LTB4. As for the experimental part: as §1
At 50 μM test compound concentrations in BLT1-expressing cells, I-44 (0.040) and I-46 (0.017) inhibited intracellular calcium mobilization.
On the technique in general: A change in cytosolic calcium serves as a functional read-out for many receptors and channels.

Another data set has as its system 300.19 cells. Nature of the data set: Cytotoxicity assay, propidium iodide based flow cytometry. The format is cell-based. Conditions: for cytotoxicity, percentage of cells staining positive for PI: 50 μM test compound. As for the experimental part:
Cytotoxicity Assay Method: To determine the potential for test compound cytotoxicity to influence cell intracellular calcium mobilization and chemotaxis, cell cytotoxicity was assessed using propidium iodide (PI) based flow cytometry. Propidium iodine is impermeable to intact cell membranes and thus its lack of intercalation into DNA (which increases PI fluorescence) is a positive indicator of cell viability. Cytotoxicity values are presented as percentage of cells staining positive for PI. Lower values of fluorescence indicate less cytotoxicity. All assays were performed a minimum of four times; error bars represent the standard deviation of the mean.
In general terms: Flow cytometry measures light scatter and fluorescence of single cells or particles in a stream.

For data set [3], the system named is hCXCR4-GFP. Nature of the data set: Intracellular calcium mobilization assay, hCXCR4-GFP expressing 300.19 cells, CXCL12. Conditions: for difference between CXCR4- and BLT1-mediated intracellular calcium mobilization: 50 μM test compound. Type of data set: cell-based, human. Here is the method:
as §1

For data set [4], the system named is hCXCR4-GFP. Nature of the data set: Chemotaxis assay, hCXCR4-GFP expressing 300.19 cells, CXCL12. Conditions: 50 μM test compound. Type of data set: cell-based, human. Here is the method: as §2

SMILES strings stand for the structures. Entries after “also recorded” stand apart in the source; their conditions may differ.

BLT1, sequence (Q15722 whole entry, species assumed): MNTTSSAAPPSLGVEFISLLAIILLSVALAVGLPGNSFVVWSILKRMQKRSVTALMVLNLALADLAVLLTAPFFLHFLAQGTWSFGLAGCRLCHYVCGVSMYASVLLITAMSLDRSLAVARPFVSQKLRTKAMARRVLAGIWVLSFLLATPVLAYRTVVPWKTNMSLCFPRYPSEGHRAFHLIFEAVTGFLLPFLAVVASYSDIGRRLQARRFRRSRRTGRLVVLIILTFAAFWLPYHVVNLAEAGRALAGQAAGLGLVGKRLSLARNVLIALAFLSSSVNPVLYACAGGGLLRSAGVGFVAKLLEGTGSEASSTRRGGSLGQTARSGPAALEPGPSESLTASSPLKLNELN
T1 sequence (P61073 whole entry): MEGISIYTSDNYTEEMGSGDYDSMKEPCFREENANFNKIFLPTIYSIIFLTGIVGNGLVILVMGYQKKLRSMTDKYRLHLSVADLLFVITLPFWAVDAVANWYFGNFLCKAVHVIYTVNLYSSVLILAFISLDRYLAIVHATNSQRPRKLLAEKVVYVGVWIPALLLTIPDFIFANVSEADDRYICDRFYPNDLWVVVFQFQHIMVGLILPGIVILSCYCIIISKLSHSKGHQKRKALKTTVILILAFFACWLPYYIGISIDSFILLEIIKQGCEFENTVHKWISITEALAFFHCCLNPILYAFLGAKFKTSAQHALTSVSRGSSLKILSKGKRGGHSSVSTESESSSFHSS

Consider `c1cc(CN2CCCNCCNCCCNCC2)ccc1CN1CCCNCCNCCCNCC1` [AMD3100, reference compound], for which, at hCXCR4-GFP [1], the “normalized Δ fluorescence (CXCR4, intracellular calcium mobilization)” value worked out at 0.51. Also, the “TC-1 metastatic tumor incidence and burden in lungs” value in the data set on TC-1 tumor cells is “reduced mice TC-1 metastatic tumor incidence and burden in lungs; also recorded: metastasis of TC-1 was significantly inhibited”. The inhibition of chemotaxis result on hCXCR4-GFP [2] is “completely inhibited”.
Regarding `C(=C\N1CCCC1)/c1nnnn1-c1ccc2ccccc2c1` [Compound I-2, 1-(2-naphthyl)-5-(2-pyrrolidin-1-ylvinyl)tetrazole], the IC50 – broadly, the concentration at which inhibition is half-maximal – on BLT1 was found to be 40 µM. For the same molecule, in the data set with 300.19 cells, the “cytotoxicity at 10 μM” value is given as “retained cytotoxicity” and the “cytotoxicity, percentage of cells staining positive for PI” value (“cytotoxicity, percentage” below) worked out at 63.5%. The IC50 on hCXCR4-GFP [1] worked out at 45 µM. The “difference between CXCR4- and BLT1-mediated intracellular calcium mobilization” value with hCXCR4-GFP [3] is listed as “no significant difference”.
Turning to `CCc1ccc(OCCNc2cc(N3CCNC(C)C3)ccc2[N+](=O)[O-])cc1` (centres unmarked) [Compound I-4, N-[2-(4-ethylphenoxy)ethyl]-5-(3-methylpiperazin-1-yl)-2-nitro-aniline], the IC50 at BLT1 was 40 µM; on hCXCR4-GFP [1] it was 45 µM. For the same molecule, the “cytotoxicity at 5 μM” value with 300.19 cells (5 μM) was “maintained cytotoxicity”. The “cytotoxicity, percentage” value in the data set on 300.19 cells stood at 98.8%. For the same molecule, the “difference between CXCR4- and BLT1-mediated chemotaxis” value in the data set on hCXCR4-GFP [4] is “small differences”. For the same molecule, in the data set on hCXCR4-GFP [3], the “difference between CXCR4- and BLT1-mediated intracellular calcium mobilization” value was “no significant difference”.
For the molecule `N=c1n(CCN2CCCCC2)c2ccccc2n1CC(O)COc1ccc(Cl)cc1` (centres unmarked) [Compound I-5, 1-(4-chlorophenoxy)-3-[2-imino-3-[2-(1-piperidyl)ethyl]benzoimidazol-1-yl]-propan-2-ol], in the data set on hCXCR4-GFP [4], the “difference between CXCR4- and BLT1-mediated chemotaxis” value is on record as “small differences”.
On the same count and under the same terms, then `C=C(C)C1CC=C(CN(CCCN(C)C)CCCN(C)C)CC1` (centres unmarked) [Compound I-6, N-(3-dimethylaminopropyl)-N-[(4-isopropenyl-1-cyclohexenyl)methyl]-N′,N′-dimethyl-propane-1,3-diamine], with “small differences”.
On to `COc1ccc(NCc2nc3ccccc3n2CCOc2ccccc2C)cc1` [Compound I-7, N-((1-(2-(o-tolyloxy)ethyl)-1H-benzo[d]imidazol-2-yl)methyl)-4-methoxybenzenamine], for which, in the data set with 300.19 cells, the “cytotoxicity at 10 μM” value was “retained cytotoxicity” and the “cytotoxicity, percentage” value stood at 53.4%.
As for `CCOc1ccc(NCc2nc3ccccc3n2CCOc2ccccc2)cc1` [Compound I-8, 4-ethoxy-N-((1-(2-phenoxyethyl)-1H-benzo[d]imidazol-2-yl)methyl)benzenamine], in the data set with hCXCR4-GFP [4], the “difference between CXCR4- and BLT1-mediated chemotaxis” value is on record as “small differences”.
For `COc1ccccc1C(=O)OCCNc1nc2cc(C)cc(C)c2cc1C#N` [Compound I-12, 2-[(3-cyano-5,7-dimethyl-2-quinolyl)amino]ethyl 2-methoxybenzoate], the IC50 on BLT1 turned out to be 2.5 µM; at hCXCR4-GFP [1], 5 µM. The “difference between CXCR4- and BLT1-mediated intracellular calcium mobilization” value in the data set with hCXCR4-GFP [3] is recorded as “no significant difference”.
The like results for `CCC(=O)NCCNc1nc2cc(C)cc(C)c2cc1C#N` [Compound I-13, N-[2-[(3-cyano-5,7-dimethyl-2-quinolyl)amino]ethyl]propanamide] were, in that order, 2.5 µM, 5 µM and “no significant difference”.
As to `CCOc1ccc(NCC(O)Cn2c3ccccc3n3c(=O)cc(C)c(C#N)c23)cc1` (centres unmarked) [Compound I-15, 5-[3-[(4-ethoxyphenyl)amino]-2-hydroxypropyl]-1,5-dihydro-3-methyl-1-oxo-pyrido[1,2-a]benzimidazole-4-carbonitrile], at BLT1, the “normalized Δ fluorescence (BLT1, intracellular calcium mobilization)” value worked out at 0.16 and the IC50 is 30 µM. On hCXCR4-GFP [1], the “normalized Δ fluorescence (CXCR4, intracellular calcium mobilization)” value was 0.45 and the IC50 is 50 µM. Also, the “fold greater inhibition of CXCR4-mediated than BLT1-mediated intracellular calcium mobilization” value in the data set with hCXCR4-GFP [3] (from normalized Δ fluorescence) was around 3 fold.
Take `CCOc1ccc(NCC(O)Cn2c3ccccc3c3ccccc32)cc1` (centres unmarked) [Compound I-16, 1-carbazol-9-yl-3-(4-ethoxyphenyl)amino-propan-2-ol]: the results for the IC50 on BLT1 and at hCXCR4-GFP [1] were 30 µM and 35 µM, respectively. The “cytotoxicity at 10 μM” value in the data set on 300.19 cells was “retained cytotoxicity”. Further, in the data set on 300.19 cells, the “cytotoxicity, percentage” value is on record as 67.9%. The “difference between CXCR4- and BLT1-mediated chemotaxis” value in the data set with hCXCR4-GFP [4] is recorded as “small differences”.
For the molecule `CCOC(=O)c1c(C)[nH]c(C(=O)COC(=O)c2c(-c3ccccc3)noc2C)c1C` [Compound I-32, [2-(4-ethoxycarbonyl-3,5-dimethyl-1H-pyrrol-2-yl)-2-oxo-ethyl]5-methyl-3-phenyl-isoxazole-4-carboxylate], the “difference between CXCR4- and BLT1-mediated chemotaxis” value with hCXCR4-GFP [4] was “small differences”.
Turning to `COC(=O)c1ccc(NC(=O)c2ccc3nc(-c4ccccn4)c(-c4ccccn4)nc3c2)cc1` [Compound I-39, methyl 4-(2,3-di(pyridin-2-yl)quinoxaline-6-carboxamido)benzoate], the “normalized Δ fluorescence (CXCR4, intracellular calcium mobilization)” value at hCXCR4-GFP [1] was found to be 0.31.
With `O=C(/C=C/c1ccccc1)NC(=S)Nc1cccc(-c2nc3ncccc3o2)c1` [Compound I-40, 1-(3-(oxazolo[4,5-b]pyridin-2-yl)phenyl)-3-((E)-3-phenylacryloyl)thiourea], the “cytotoxicity, percentage” value in the data set on 300.19 cells was found to be 88.3%.
Regarding `COc1ccc(-c2cc(-c3ccccc3)cc3sc(/C(N)=N\C#N)c(N)c23)cc1` [Compound I-44, (E)-3-amino-N′-cyano-4-(4-methoxyphenyl)-6-phenylbenzo[b]thiophene-2-carboxamidine], the “normalized Δ fluorescence (BLT1, intracellular calcium mobilization)” value on BLT1 turned out to be 0.040. Also, in the data set on 300.19 cells, the “cytotoxicity, percentage” value amounted to 99.8%. At hCXCR4-GFP [1], the “normalized Δ fluorescence (CXCR4, intracellular calcium mobilization)” value is recorded as 0.29.
